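96-well plates; 48 h exposure; 5 concentrations. Endpoints by linear interpolation between flanking doses. Not reached: highest tested concentration assigned. GI50: concentration for 50% inhibition of growth.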 Active and inactive are the calls of the source. No stated cut-off is given here; in the data, active = GI50 up to about 1.1 µM and inactive = higher.
Legend:
Test in all cases: NCI-60 cell line screen, 48 h
HCT-116 = test system: HCT-116
NCI-H522 = test system: NCI-H522
SNB-75 = test system: SNB-75
ACHN = test system: ACHN
RPMI-8226 = test system: RPMI-8226
OVCAR-3 = test system: OVCAR-3
NCI-H23 = test system: NCI-H23
CAKI-1 = test system: CAKI-1
SK-MEL-5 = test system: SK-MEL-5
NCI-H226 = test system: NCI-H226
786-0 = test system: 786-0
HOP-92 = test system: HOP-92
A549 = test system: A549
SF-539 = test system: SF-539
COLO 205 = test system: COLO 205
DU-145 = test system: DU-145
SK-OV-3 = test system: SK-OV-3
SR = test system: SR
HL-60 = test system: HL-60
IGROV-1 = test system: IGROV-1

| SMILES | GI50 (HCT-116) | GI50 (NCI-H522) | GI50 (SNB-75) | GI50 (ACHN) | GI50 (RPMI-8226) | GI50 (OVCAR-3) | GI50 (NCI-H23) | GI50 (CAKI-1) | GI50 (SK-MEL-5) | GI50 (NCI-H226) | GI50 (786-0) | GI50 (HOP-92) | GI50 (A549) | GI50 (SF-539) | GI50 (COLO 205) | GI50 (DU-145) | GI50 (SK-OV-3) | GI50 (SR) | GI50 (HL-60) | GI50 (IGROV-1) |
| --- | --- | --- | --- | --- | --- | --- | --- | --- | --- | --- | --- | --- | --- | --- | --- | --- | --- | --- | --- | --- |
| C=CCOC(=O)CCCCCCCCCCCCCCCOC(=O)C1=C(CCC[C@@H](C)O[Si](C)(C)C(C)(C)C)NC(=O)N2[C@H](CC3(CC/C=C\[C@H](CC)O[Si](C(C)C)(C(C)C)C(C)C)OCCO3)CC[C@H]12 | > 100 µM (inactive) | > 100 µM (inactive) | > 100 µM (inactive) | > 100 µM (inactive) | > 100 µM (inactive) | > 100 µM (inactive) | > 100 µM (inactive) | > 100 µM (inactive) | > 100 µM (inactive) | > 100 µM (inactive) | > 100 µM (inactive) | 18.9 µM (inactive) | > 100 µM (inactive) | 67.3 µM (inactive) | > 100 µM (inactive) | > 100 µM (inactive) | > 100 µM (inactive) | – | – | – |
| Cc1cc(Cl)nc(NC(=O)CSc2ccc(Cl)cc2)n1 | > 100 µM (inactive) | 95.7 µM (inactive) | – | > 100 µM (inactive) | 38.6 µM (inactive) | > 100 µM (inactive) | > 100 µM (inactive) | – | > 100 µM (inactive) | 22.1 µM (inactive) | > 100 µM (inactive) | > 100 µM (inactive) | > 100 µM (inactive) | – | – | > 100 µM (inactive) | – | > 100 µM (inactive) | > 100 µM (inactive) | > 100 µM (inactive) |
| Cc1ccc(NC(=O)CC(=O)n2nc(C)c(/N=N/c3ccc(S(=O)(=O)CCOS(=O)(=O)O)cc3)c2C)cc1 | > 100 µM (inactive) | > 100 µM (inactive) | > 100 µM (inactive) | > 100 µM (inactive) | > 100 µM (inactive) | > 100 µM (inactive) | > 100 µM (inactive) | – | > 100 µM (inactive) | > 100 µM (inactive) | > 100 µM (inactive) | – | > 100 µM (inactive) | > 100 µM (inactive) | > 100 µM (inactive) | > 100 µM (inactive) | > 100 µM (inactive) | – | > 100 µM (inactive) | > 100 µM (inactive) |
| Fc1cccc2nc(-c3ccccc3)cc(OCc3ccccc3)c12 | > 100 µM (inactive) | 71.8 µM (inactive) | 65.6 µM (inactive) | > 100 µM (inactive) | > 100 µM (inactive) | > 100 µM (inactive) | > 100 µM (inactive) | – | 28.4 µM (inactive) | > 100 µM (inactive) | > 100 µM (inactive) | – | 83.4 µM (inactive) | – | > 100 µM (inactive) | > 100 µM (inactive) | > 100 µM (inactive) | > 100 µM (inactive) | > 100 µM (inactive) | > 100 µM (inactive) |
| Cc1cc(-c2nc3ccccc3s2)ccc1NC(=O)[C@H](C)N | 10.9 µM (inactive) | 24.2 µM (inactive) | 12.5 µM (inactive) | 13.6 µM (inactive) | – | 11.4 µM (inactive) | 16.5 µM (inactive) | 11.3 µM (inactive) | 13 µM (inactive) | 0.942 µM (active) | 11.1 µM (inactive) | 15.7 µM (inactive) | 13.7 µM (inactive) | – | 13.2 µM (inactive) | 15.3 µM (inactive) | 14.9 µM (inactive) | 5.2 µM (inactive) | – | 4.38 µM (inactive) |
| O=c1[nH]c(=O)n(COCc2ccccc2)cc1Nc1ccc(Br)cc1 | > 100 µM (inactive) | – | – | > 100 µM (inactive) | > 100 µM (inactive) | > 100 µM (inactive) | > 100 µM (inactive) | > 100 µM (inactive) | > 100 µM (inactive) | > 100 µM (inactive) | > 100 µM (inactive) | > 100 µM (inactive) | > 100 µM (inactive) | – | > 100 µM (inactive) | > 100 µM (inactive) | – | > 100 µM (inactive) | > 100 µM (inactive) | 0.51 µM (active) |
| CC1=C(C(=O)Nc2ccccc2)C(c2ccccc2Cl)C(C(=O)Nc2ccccc2)=C(C)N1 | 22.6 µM (inactive) | 19.6 µM (inactive) | 28.1 µM (inactive) | 30.5 µM (inactive) | 19.4 µM (inactive) | 17.6 µM (inactive) | 26.4 µM (inactive) | 27.9 µM (inactive) | 15.2 µM (inactive) | 22.2 µM (inactive) | 19.6 µM (inactive) | 21.6 µM (inactive) | 41.6 µM (inactive) | 20 µM (inactive) | 19.4 µM (inactive) | – | 37.1 µM (inactive) | 25.8 µM (inactive) | < 0.01 µM (active) | 27.9 µM (inactive) |
| CSc1nc(Cl)c2c(n1)Sc1nc3ccccc3n1C2O (configuration not stated) | 2.48 µM (inactive) | 2.73 µM (inactive) | 10.6 µM (inactive) | 5.89 µM (inactive) | 2.85 µM (inactive) | 5.3 µM (inactive) | 5.65 µM (inactive) | 1.85 µM (inactive) | 2.5 µM (inactive) | 29.1 µM (inactive) | 2.15 µM (inactive) | 5.31 µM (inactive) | 7.38 µM (inactive) | 1.83 µM (inactive) | 2.64 µM (inactive) | 11.4 µM (inactive) | 47.9 µM (inactive) | – | – | 3.87 µM (inactive) |
| O=c1[nH][nH]c(=O)n1Cc1ccccc1Cn1c(=O)[nH][nH]c1=O | > 100 µM (inactive) | > 100 µM (inactive) | > 100 µM (inactive) | > 100 µM (inactive) | > 100 µM (inactive) | > 100 µM (inactive) | > 100 µM (inactive) | > 100 µM (inactive) | > 100 µM (inactive) | > 100 µM (inactive) | > 100 µM (inactive) | > 100 µM (inactive) | > 100 µM (inactive) | > 100 µM (inactive) | > 100 µM (inactive) | > 100 µM (inactive) | > 100 µM (inactive) | – | > 100 µM (inactive) | > 100 µM (inactive) |
| O=Cc1cc([N+](=O)[O-])no1 | 11 µM (inactive) | – | > 100 µM (inactive) | – | 16.9 µM (inactive) | 40.6 µM (inactive) | 33.8 µM (inactive) | > 100 µM (inactive) | 20 µM (inactive) | 78.9 µM (inactive) | – | > 100 µM (inactive) | – | – | 36 µM (inactive) | 80.5 µM (inactive) | > 100 µM (inactive) | 31.4 µM (inactive) | 15.9 µM (inactive) | 59 µM (inactive) |
| CCOC(=O)C(Cc1cn(C(C)=O)c2ccccc12)P(=O)(OCC)OCC (configuration not stated) | > 100 µM (inactive) | > 100 µM (inactive) | > 100 µM (inactive) | > 100 µM (inactive) | > 100 µM (inactive) | > 100 µM (inactive) | > 100 µM (inactive) | > 100 µM (inactive) | > 100 µM (inactive) | > 100 µM (inactive) | – | > 100 µM (inactive) | > 100 µM (inactive) | – | > 100 µM (inactive) | > 100 µM (inactive) | > 100 µM (inactive) | > 100 µM (inactive) | – | > 100 µM (inactive) |
| Cc1ccc2c(c1)SC1=Nc3sc4cc(C)ccc4[n+]3CN12 | 10.5 µM (inactive) | 1.05 µM (active) | 11.4 µM (inactive) | 30.2 µM (inactive) | 1.81 µM (inactive) | 1.01 µM (active) | 1.98 µM (inactive) | – | 1.07 µM (active) | 15.8 µM (inactive) | 32.2 µM (inactive) | 2.97 µM (inactive) | 2.68 µM (inactive) | 3.73 µM (inactive) | 2.7 µM (inactive) | 24.1 µM (inactive) | 31.8 µM (inactive) | – | 2.07 µM (inactive) | 16.1 µM (inactive) |
| O=C(CCN(C(=O)O)S(=O)(=O)c1ccc(NC(=O)c2ccccc2)cc1)Nc1ccccc1 | > 56.6 µM (inactive) | > 100 µM (inactive) | > 100 µM (inactive) | > 100 µM (inactive) | > 64.1 µM (inactive) | > 100 µM (inactive) | > 100 µM (inactive) | > 100 µM (inactive) | > 100 µM (inactive) | > 100 µM (inactive) | > 100 µM (inactive) | > 100 µM (inactive) | > 46.5 µM (inactive) | > 100 µM (inactive) | > 61.4 µM (inactive) | – | > 100 µM (inactive) | 15.8 µM (inactive) | > 61.8 µM (inactive) | > 100 µM (inactive) |
| Cc1nnc2n1N=C(c1cc(F)c(Cl)cc1Cl)/C(=C/c1ccc(Cl)cc1)S2 | 7 µM (inactive) | 20.7 µM (inactive) | – | 16.5 µM (inactive) | 15.5 µM (inactive) | 12.7 µM (inactive) | 14.5 µM (inactive) | 10.1 µM (inactive) | 19.2 µM (inactive) | 23.2 µM (inactive) | 16.8 µM (inactive) | 19.6 µM (inactive) | 18 µM (inactive) | 25.9 µM (inactive) | 33.4 µM (inactive) | 17.1 µM (inactive) | 43.4 µM (inactive) | – | 26.4 µM (inactive) | 19.6 µM (inactive) |
| Cc1sc2c(c1C)C(=O)c1cccn1-2 | 61.2 µM (inactive) | 92 µM (inactive) | 35.2 µM (inactive) | > 100 µM (inactive) | 50.7 µM (inactive) | > 100 µM (inactive) | – | 85.7 µM (inactive) | > 100 µM (inactive) | > 100 µM (inactive) | 87.7 µM (inactive) | – | 60.5 µM (inactive) | – | > 100 µM (inactive) | 95.3 µM (inactive) | > 100 µM (inactive) | 19.3 µM (inactive) | – | 64.7 µM (inactive) |
| CC1(C)N=C(N)N=C(N)N1c1cccc(OCc2cccc([N+](=O)[O-])c2)c1 | 5.41 µM (inactive) | 8.91 µM (inactive) | > 57 µM (inactive) | > 100 µM (inactive) | 32.7 µM (inactive) | 22.9 µM (inactive) | 7.26 µM (inactive) | > 100 µM (inactive) | 4.86 µM (inactive) | > 100 µM (inactive) | 5.78 µM (inactive) | > 100 µM (inactive) | 4.18 µM (inactive) | 17.6 µM (inactive) | 9.93 µM (inactive) | > 38.5 µM (inactive) | > 100 µM (inactive) | – | 9.95 µM (inactive) | 7.87 µM (inactive) |

Source: ChEMBL document CHEMBL1201862, “PubChem BioAssay data set” (2004)
